# Assays:
# Format in all cases: cell-based
# [1] = test system: bacteria/fungi samples from Example 1; assay: Planktonic susceptibility, MIC and MBC in 96-well microtiter plates; conditions: averaged results
# Method: Planktonic Susceptibility. Testing of planktonic susceptibility was conducted using MIC and MBC assessments on bacterial strains using 96-well microtiter plates. To prepare the wells for bacteria, serial dilutions of the antibacterial agents were Carried out along the rows of two microtiter plates. The antibacterials were 2-fold diluted with Mueller-Hinton broth (MHB) in each column, reaching a volume of 75 μL. The 1.0 McFarland standard was diluted 15-fold in MHB, and 75 μL of inoculum was added to the wells treated with antibacterials, resulting in a total volume of 150 μL. The microtiter plates were covered, then shake-incubated overnight at 150 rpm and 37° C. MIC was determined based on visible bacterial growth. In cases of Antibacterial opacity or ambiguous results, streaking of well cultures on Mueller-Hinton agar (MHA), overnight incubation, and subsequent comparison to controls were performed. MBC was determined by transferring 3 u L of culture from all MIC microtiter plate wells to 147 μL of MHB in fresh plates. These plates were shake-incubated overnight at 150 rpm and 37° C., and bacterial growth was visually inspected. Combination Antimicrobial Efficacy Testing. This checkerboard (96-well microtiter plates) included one column just media without bacteria/fungi and MBAs/PBCs (as a negative control), and one column without MBA/PBCs, with media, and bacteria/fungi (as a growth and positive controls control), MBAs and/or PBCs were diluted ½ across the rows (19, 20). For each analysis, the same MIC and MBC/MFC steps indicated above were conducted for surveying the bacteriostatic, bactericidal, and reading synergism effects of MBAs with PBCs combinations.
# Samples from Example 1 were tested using combinations of additives as well as additives on their own for measuring bacteriostatic effects, bactericidal effects and biofilm inhibition properties.
# Method of bacteriostatic effects, bactericidal effects explained in example 1 using MIC and MBC methods, respectively.
# [2] = test system: bacteria/candida biofilm (samples from Example 1); assay: Prevention of biofilm formation, MBIC by crystal violet assay; conditions: 48 hours at 37° C.; averaged results; unit not given
# Method: For the prevention of biofilm formation, desired concentrations of metals (loid) and/or PBCs were added to 96 wells, with 1.0×10^6 CFU/ml bacteria/candida added to each well. The plates were then incubated for 48 hours at 37° C. in a microplate shaker incubator at 150 rpm. Afterward, the planktonic cells and spent medium were discarded, and the adhered biomass was rinsed twice with distilled water. Biofilm biomass and minimum biofilm inhibitory concentration (MBIC) were determined using the crystal violet assay. The well with no bacterial biofilm and an OD600 absorption of zero was considered the MBIC. Results from at least three separate biological replicates were averaged.
# In the crystal violet assay, the microplates or Calgary biofilm device were rinsed twice with 200 μl of 0.9% saline, then stained with 200 μl of a 0.1% crystal violet solution for 30minutes. Following staining, the microplates and pegs were washed three times with 200 μl of ddH2O to remove excess dye. Biofilm quantification was performed by sonication using a 250HT™ ultrasonic cleaner (VWR International) set at 60 Hz for 10 minutes into 200 μl of 70% ethanol, and absorbance was read at 600 nm using 70% ethanol as the blank.
# [3] = test system: 11 different gram-positive and gram-negative bacteria as well as 7 different fungi, in total 18 microbes; assay: Combination antimicrobial % efficacy in comparison to silver (MIC, MBC/MFC, MBIC averaged); conditions: molar ratios Zinc 1:Carvacrol 3:Resveratrol 1:THC 0.1:CBD 0.1, averaged over all microbes and MIC, minimum of three biological repeats
# Description: Samples of 11 different gram-positive and gram-negative bacteria as well as 7 different fungi, in total 18 microbes included Pseudomonas aeruginosa ATCC 27853, Pseudomonas aeruginosa PAO1, Klebsiella pneumoniae ATCC 11296, Staphylococcus aureus ATCC 25923, Methicillin resistant S. aureus (MRSA) ATCC 33591, Escherichia coli ATCC 25922,Enterococcus faecium ATCC 19434, Staphylococcus epidermidis ATCC 12228, Enterococcus faecalis ATCC 29212, Proteus mirabilisATCC 35659, Acinetobacter baumannii CDC strain AR Bank #0033, Candida albicans ATCC 90028, Candida glabrata ATCC 2001, Candida parasilosis ATCC 22019, Candida krusei ATCC 14243, Candida tropicalis ATCC 13803, Candida auris ATCC MYA-5002, Aspergillus fumigatusATCC 16404 were used.
# Metal (loid)-based antimicrobials (MBAs) including, silver nitrate (AgNO3, Sigma-Aldrich, St Louis, MO, USA Lot #M3259), potassium tellurite (K2TeO3, Sigma-Aldrich, St Louis, MO, USA, Cat #P2358-12C), hydrogen tetrachloroaurate (III) trihydrate (AuCl4.3H2O, Alfa Acsar Tweksbury, MA, USA, Lot #U17G046), zinc oxide nanoparticles, <100 nm (Sigma Aldrich), zinc sulfate (ZnSO4·1H2O), and zinc sulfate (ZnSO4.7H2O) were received from Fisher Scientific (Fair Lawn, NJ, USA, Lot #723689). […]
# Planktonic Susceptibility. […] MIC was determined based on visible bacterial growth. […]
# [4] = test system: microbes; assay: Evaluation of zinc sources for antimicrobial properties; conditions: comparison of zinc sources
Compound,"Bactericidal (MBC) ([1]; unit inferred, unit assumed)","Bacteriostatic (MIC) ([1]; unit inferred, unit assumed)",Biofilm Inhibition (MBIC) [2],"Total antimicrobial efficacy percent over silver alone, including Antibacterial and antibiofilm efficacy (%) [3]",Antimicrobial effects of zinc source (in words) [4],Bactericidal (MBC) ([1]; unit not given)
"C[N+](C)(C)CC(=O)O [Betaine (0.1%), Betaine]",1 µg/mL,1 µg/mL,1,–,–,–
"Cc1ccc(C(C)C)cc1O [Carvacrol, 5-Isopropyl-2-methylphenol]",–,–,–,1.3%,–,–
"OO [H2O2 (1.5%), hydrogen peroxide]",0.5 µg/mL,0.5 µg/mL,0.5,–,–,–
"OO [H2O2 (3%), hydrogen peroxide]",0.5 µg/mL,0.25 µg/mL,0.5,–,–,–
O.O.O.O.O.O.O.O=S(=O)([O-])[O-].[Zn+2] [zinc sulfate heptahydrate],–,–,–,–,comparable to zinc sulfate monohydrate,–
benzalkonium chloride [Liquid BZK (0.1%)],–,0.25 µg/mL,(0.25-0.5),–,–,(0.25-0.5)

# From patent publication US20250345363A1, “ANTIMICROBIAL AND ANTIBIOFILM COMPOSITIONS AND USES THEREOF” (MHCombiotic Inc., priority 2024, published 2025)
